Key:
Format in all cases: cell-based
hGPR17L-D105N [1] = molecular target: T1, hGPR17L-D105N (Homo sapiens, UniProt Q13304, D105N); assay: Calcium flux assay
T1 construct: expressed in transfected cells; host or cells: HEK293 (ATCC CRL-1573), transient transfection
Protocol: (§1) HEK293 cells were seeded at 20,000 cells/well into black, optical bottom, poly-D-lysine coated 96-well plates. The following day, cells were transiently transfected with pcDNA3-HA-hGPR17L or pcDNA3-HA-hGPR17L-variants using lipofectamine 3000. Twenty-four hours after transfection, the growth medium and transfection mix were decanted and 100 μl/well assay buffer (HBSS, 20 mM HEPES, pH 7.2) and 100 μl/well Calcium 6 loading dye (R8190; Molecular Devices) were added to the plate and incubated at 37 °C, 5% CO2 for 1 h 45 min. Plate was allowed to equilibrate to room temperature on the bench top for 30 min. MDL29,951 diluted in assay buffer was added to the wells and fluorescence (485 nm excitation, 525 nm emission, and 515 nm automatic emission cutoff) was measured using a Molecular Devices FlexStation3 (Molecular Devices). For experiments with pertussis toxin, cells were pretreated with 100 ng/ml pertussis toxin overnight and 100 ng/ml pertussis toxin was included with Calcium 6 loading dye for calcium flux assays.

hGPR17L-G136S [2] = molecular target: T2, hGPR17L-G136S (Homo sapiens, UniProt Q13304, G136S); assay: Calcium flux assay; settings: HEK293, read-out: calcium response, % of the maximum response observed for hGPR17L-WT
T2 construct: expressed in transfected cells; host or cells: HEK293 (ATCC CRL-1573), transient transfection
Protocol: as §1

hGPR17L-V96M = molecular target: T3, hGPR17L-V96M (Homo sapiens, UniProt Q13304, V96M); assay: Calcium flux assay
T3 construct: expressed in transfected cells; host or cells: HEK293 (ATCC CRL-1573), transient transfection
Protocol: as §1

hGPR17L-R301H = molecular target: T4, hGPR17L-R301H (Homo sapiens, UniProt Q13304, R301H); assay: Calcium flux assay
T4 construct: expressed in transfected cells; host or cells: HEK293 (ATCC CRL-1573)
Protocol: as §1

hGPR17L-D105N [3] = molecular target: T1, hGPR17L-D105N; assay: GloSensor cAMP assay, inhibition of forskolin-stimulated cAMP
Protocol: (§2) HEK293 cells were seeded at 20,000 cells/well into white, opaque 96-well plates. The next day, cells were transiently cotransfected with pGloSensor-cAMP-22F and pcDNA3-HA-hGPR17L or pcDNA3-HA-hGPR17L-variants using lipofectamine 3000. Twenty-four hours posttransfection, growth medium and transfection mix were aspirated and replaced with 100 μl/well equilibration medium (2% Promega GloSensor cAMP reagent [E1291; Promega Corporation] in CO2-independent medium) and incubated at room temperature for 2 h. Baseline luminescence was read on a Molecular Devices SpectraMax iD5 plate reader (Molecular Devices) at ambient room temperature for 8 min. Subsequently, 10 μl/well MDL29,951 diluted in assay buffer (HBSS, 20 mM HEPES, pH 7.2) was added and luminescence was read for 10 min. Finally, 10 μl/well forskolin (1099; Tocris Bioscience) diluted in assay buffer was added and luminescence was measured for 20–30 min. The average luminescence value for the 14–20 min time points for each well was normalized to their average baseline luminescence value and expressed as a percentage of the forskolin-stimulated response within each transfection condition.

hGPR17L-WT = molecular target: T5, hGPR17L-WT (Homo sapiens, UniProt Q13304); assay: as above
T5 construct: expressed in transfected cells; host or cells: HEK293 (ATCC CRL-1573), transient transfection of pcDNA3-HA-hGPR17L
Protocol: as §2

hGPR17L-G354V = molecular target: T6, hGPR17L-G354V (Homo sapiens, UniProt Q13304, G354V); assay: as above
T6 construct: expressed in transfected cells; host or cells: HEK293 (ATCC CRL-1573)
Protocol: as §2

hGPR17L-G136S [4] = molecular target: T2, hGPR17L-G136S; assay: as above
Protocol: as §2

[5] = HEK293, inhibition of 3 μM forskolin-stimulated cAMP
[6] = read-out: cAMP IC50, HEK293, inhibition of 3 μM forskolin-stimulated cAMP

T2 sequence (Q13304 whole entry G136S): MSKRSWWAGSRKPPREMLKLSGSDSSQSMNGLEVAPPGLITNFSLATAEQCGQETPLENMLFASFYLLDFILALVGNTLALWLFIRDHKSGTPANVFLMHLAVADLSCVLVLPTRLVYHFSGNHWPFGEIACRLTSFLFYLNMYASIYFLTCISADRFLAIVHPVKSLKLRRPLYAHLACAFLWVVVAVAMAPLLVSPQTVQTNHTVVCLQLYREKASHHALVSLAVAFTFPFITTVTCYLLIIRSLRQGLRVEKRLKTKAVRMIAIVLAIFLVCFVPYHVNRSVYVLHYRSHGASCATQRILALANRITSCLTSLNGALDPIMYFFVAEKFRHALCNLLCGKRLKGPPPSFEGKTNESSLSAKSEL
T4 sequence (Q13304 whole entry R301H): as the sequence (Q13304 whole entry G136S) above, with S136G, R301H counted along it
T3 sequence (Q13304 whole entry V96M): as the sequence (Q13304 whole entry G136S) above, with V96M, S136G counted along it
T6 sequence (Q13304 whole entry G354V): as the sequence (Q13304 whole entry G136S) above, with S136G, G354V counted along it
T1 sequence (Q13304 whole entry D105N): as the sequence (Q13304 whole entry G136S) above, with D105N, S136G counted along it
T5 sequence (Q13304 whole entry): as the sequence (Q13304 whole entry G136S) above, with S136G counted along it

## O=C(O)CCc1c(C(=O)O)[nH]c2cc(Cl)cc(Cl)c12 [MDL29,951]
hGPR17L-D105N [1]
  calcium mobilization in the presence of pertussis toxin: reduced calcium mobilization
hGPR17L-D105N [1]; hGPR17L-D105N
  fold less potent calcium response vs hGPR17L-WT: 6–7 fold
  reduction of efficacy of calcium response vs hGPR17L-WT: approximately 70%
hGPR17L-D105N [1]; hGPR17L-D105N, HEK293
  Ca2+ Efficacy (% of WT Emax): 28 ± 4.5 % of WT Emax
hGPR17L-D105N [1]; hGPR17L-D105N, HEK293, calcium mobilization
  Ca2+ pEC50 ± SEM: 6.21 ± 0.11
hGPR17L-D105N [1]; read-out: Ca2+ EC50, hGPR17L-D105N, HEK293, calcium mobilization
  EC50: 620 nM
hGPR17L-G136S [2]
  Emax: 3.6 ± 1.3%
hGPR17L-V96M
  calcium mobilization in the presence of pertussis toxin: reduced calcium mobilization
hGPR17L-V96M; hGPR17L-V96M
  fold less potent calcium response vs hGPR17L-WT: 6–7 fold
  reduction of efficacy of calcium response vs hGPR17L-WT: approximately 70%
hGPR17L-V96M; hGPR17L-V96M, HEK293
  Ca2+ Efficacy (% of WT Emax): 31 ± 4.7 % of WT Emax
hGPR17L-V96M; hGPR17L-V96M, HEK293, calcium mobilization
  Ca2+ pEC50 ± SEM: 6.27 ± 0.05
hGPR17L-V96M; read-out: Ca2+ EC50, hGPR17L-V96M, HEK293, calcium mobilization
  EC50: 540 nM
hGPR17L-R301H; HEK293
  Ca2+ Efficacy (% of WT Emax): 85 ± 3.6 % of WT Emax
hGPR17L-R301H; HEK293, calcium mobilization
  Ca2+ pEC50 ± SEM: 6.74 ± 0.14
hGPR17L-R301H; read-out: Ca2+ EC50, HEK293, calcium mobilization
  EC50: 180 nM
hGPR17L-D105N [3]
  fold less potent for inhibition of forskolin-stimulated cAMP relative to hGPR17L-WT: sixfold less potent
hGPR17L-D105N [3]; HEK293, 3 μM forskolin
  cAMP Efficacy (% inhibition): 48 ± 4.7 % inhibition
hGPR17L-D105N [3]; HEK293, 10 μM MDL29,951
  cAMP 10 μM MDL +3 μM FSK (% of FSK): 49 ± 7.3 % of FSK
hGPR17L-D105N [3]; HEK293, 100 μM MDL29,951
  cAMP 100 μM MDL +3 μM FSK (% of FSK): 56 ± 10 % of FSK
hGPR17L-D105N [3]; [5]
  cAMP pIC50 ± SEM: 7.75 ± 0.25
hGPR17L-D105N [3]; [6]
  IC50: 18 nM
hGPR17L-WT; HEK293, 3 μM forskolin
  cAMP Efficacy (% inhibition): 47 ± 2.5 % inhibition
hGPR17L-WT; HEK293, 10 μM MDL29,951
  cAMP 10 μM MDL +3 μM FSK (% of FSK): 92 ± 4.4 % of FSK
hGPR17L-WT; HEK293, 100 μM MDL29,951
  cAMP 100 μM MDL +3 μM FSK (% of FSK): 115 ± 6.1 % of FSK
hGPR17L-WT; [5]
  cAMP pIC50 ± SEM: 8.52 ± 0.13
hGPR17L-WT; [6]
  IC50: 3 nM
hGPR17L-G354V; HEK293, 3 μM forskolin
  cAMP Efficacy (% inhibition): 42 ± 6.7 % inhibition
hGPR17L-G354V; HEK293, 10 μM MDL29,951
  cAMP 10 μM MDL +3 μM FSK (% of FSK): 91 ± 13 % of FSK
hGPR17L-G354V; HEK293, 100 μM MDL29,951
  cAMP 100 μM MDL +3 μM FSK (% of FSK): 113 ± 10 % of FSK
hGPR17L-G354V; [5]
  cAMP pIC50 ± SEM: 8.34 ± 0.25
hGPR17L-G354V; [6]
  IC50: 4.6 nM
hGPR17L-G136S [4]
  fold less potent for inhibition of forskolin-stimulated cAMP relative to hGPR17L-WT: approximately 400 fold
hGPR17L-G136S [4]; HEK293, 3 μM forskolin
  cAMP Efficacy (% inhibition): 39 ± 2.3 % inhibition

Source: paper PMC8267566, “Human GPR17 missense variants identified in metabolic disease patients have distinct downstream signaling profiles” (The Journal of Biological Chemistry, 2021)
